{
  "source": "patent EP0260606A2",
  "about": "“Medicament for curing neurotic disturbance or disorder comprising sialocylglycerolipid” (MECT CORPORATION, priority 1986, dated 1988)",
  "system": "rats having their sciatic nerves crushed",
  "assay": "Curing effect on rats with crushed sciatic nerve (distance between toes, weight of musculi soleus)",
  "format": "in vivo, rat",
  "details": "0.5 mg/kg, ip, average ± S.D.",
  "experimental": "The curing effect of the compound (I) of the invention on the rats having their sciatic nerves crushed, which were used as models caused by peripheral nervous disturbances, was assessed by examining (l) the change in action of the crushed hind leg and (2) the change in weight of the muscle as indicators for the modification of peripheral nerve and for the recovery course of the disturbance.\nIn the experiment, seven male Wister family rats (6 weeks age) were used per a group. The sciatic nerve of each rat was crushed in accordance with the method of Yamazu et al. (see Kiyomi Yamazu, Takenori Kaneko, Akifumi Kitahara and Isao Ohkawa, Journal of Japanese Pharmacological Society, 72, 259 - -268 (l976)) and in accordance with the method of Hasegawa et al. (see Kazuo Hasegawa, Naoji Mikuni and Yutaka Sakai, Journal of Japanese Pharmacological Society, 74, 72l - 734 (l978)). Specifically, under anesthesia with Pentobarbital (40 mg/kg, i.p.), the left sciatic nerve was exposed at the femur and the site 5 mm centrally from the branch portion between the N. tibialis and the N. suralis was crushed using a modified artery klemme having a width of 2 mm and gap of 0.l mm. Rats subjected to the operation were randomly dispensed to form the groups subjected to test.\nThe compound (I) of the invention was intraperitoneally administered one time per day from the day on which the nerve was crushed to the 22nd day. The control groups included a group administered with Mecobalamin (produced by Gedeon Richter Ltd.), a group administered with a 20% aqueous solution of propylene glycol (hereinafter referred to as 20% PG) which was used to dissolve the compound (I) of the invention, and a group administered with a 0.9% aqueous saline solution. The predetermined measurements were conducted with the lapse of time after the crushing operation (at the first, fourth, seventh, tenth, l4th, l5th, l7th, l9th 2lst and 28th days).\nThe distance between the toes was measured, since this is a good indicator showing the modification and recovery of the function of the nerve and the change thereof could conveniently measured with the lapse of time.\nThe measurement was conducted in accordance with the method of Hasegawa, (Hasegawa, K., Experientia, 34, 750 - 75l (l978)) by measuring the distance from the first toe to the fifth toe of the hind leg.\nThe ratio of the distance at the crushed side to the distance at the normal side was calculated as a percentage (%), the average values and the standard deviations (S.D.) being shown in Table 5.\nIt is known that removal of or disturbance in a certain nerve causes atrophy of the muscle controlled by the nerve, and the atrophy is gradually recovered by the recontrol by the nerve. For this reason, the quantitative change in weight of the muscle was selected as an indicator. At 28th day after the operation, the muscli soleus of both hind legs were extracted under anesthesia with Pentobarbital, and the weights of the muscles were weighed. The weight ratio of the muscli soleus at the crushed side to the muscli soleus at the normal side was calculated and represented by percentage (%).",
  "data": [
    {"compound": "C/C1=C2/[N-][C@H]([C@H](CC(N)=O)[C@@]2(C)CCC(=O)NC[C@@H](C)OP(=O)([O-])O[C@H]2[C@@H](O)[C@@H](n3cnc4cc(C)c(C)cc43)O[C@@H]2CO)[C@]2(C)N=C(/C(C)=C3N=C(/C=C4N=C1[C@@H](CCC(N)=O)C\\4(C)C)[C@@H](CCC(N)=O)[C@]\\3(C)CC(N)=O)[C@@H](CCC(N)=O)[C@]2(C)CC(N)=O.[CH3-].[Co+3]", "note": "[Mecobalamine]", "values": [
      {"measurement": "Recovery Rate (%) in Distance between the Fingers", "setting": "17th Day", "value": "77.0 ± 10.7", "unit": "%"},
      {"measurement": "Recovery Rate (%) in Distance between the Fingers", "setting": "19th Day", "value": "88.8 ± 5.1", "unit": "%"},
      {"measurement": "Recovery Rate (%) in Weight of the Muscle", "setting": "28th Day", "value": "82.7 ± 5.1", "unit": "%"}
    ]}
  ]
}
